Common to all, as to format: cell-based, human
In assay [1] the test system is caspase-3/7 in SW480 cells. Description: Caspase-3/7 activity assay, SW480 cells. As to conditions: 25 μM, 24 hours, compared to CCD18Co cells. As for the experimental part:
(§1) FIG. 6. • A. COMPOUND 1 arrests cells in G1. FACS analysis was performed on SW480 (lower panel) and HCT116 (upper panel) cells treated for 24 hours with either COMPOUND 1 (25 μM) (right) or control (0.5% DMSO (left). 5.5×10^6 cells were fixed and stained with propidium iodide (PI). G0/G1, S, and G2/M are indicated by arrows. • B. COMPOUND 1 selectively activates caspases in colon carcinoma cell lines. SW480 and HCT116 (left graph) cells (10^5) along with the normal colonocytes, CCD18Co (right graph) were treated with either control (0.5% DMSO) or COMPOUND 1 (25 μM). 24 hours post treatment, cells were lysed and the caspase-3/7 enzymatic activities were measured. Relative fluorescence units (RFU) were calculated by subtracting the unit values of the blank (control, without cells) from the treated samples (COMPOUND 1 or control) and plotted.
SW480, HCT116, and CCD18Co cells were plated at 10^5 cells per well (96-well plates) for 24 hours prior to treatment. 25 μM of COMPOUND 1 or control (0.5% DMSO) was added to each well. 24 hours post treatment, cells were lysed and caspase activity was measured using a caspase-3/7 activity kit (Apo-One Homogeneous caspase-3/7 assay, #G77905, Promega). Relative fluorescence units (RFU) were obtained by subtracting the unit values of the blank (control, without cells) from the experimental measured values. […]

For a further assay, the system named is SW480 cells. Description: Soft agar colony formation assay with SW480 cells.
Another assay has as its system cyclin D1 promoter. In words: ChIP assay, cyclin D1 promoter in SW480 cells. The settings on record: 25 μM. The protocol: FIG. 5. COMPOUND 1 inhibits the expression of cyclin D1. • A. Cyclin D1 levels are decreased with COMPOUND 1 treatment. Western blot analysis was performed on 25 μg of SW480 whole cell lysates treated for 4, 8, or 24 hours with either 25 μM of COMPOUND 1 or control (0.5% DMSO). Immunoblotting was performed using anti-Cyclin D1 antibodies (Santa Cruz Biotechnology Inc.). • B. In vivo occupancy of cyclin D1 and c-myc promoters by CBP and p300. […] ChIP assays were performed on promoter of c-myc from SW480 cells which was treated for 8 hours with COMPOUND 1 (25 μM) or control (0.5% DMSO). CBP (AC-26, a generous gift from Dr. David Livingston, Harvard University, Boston, Mass.) or p300 (C-20, Santa Cruz Biotechnology Inc.) specific antibodies were used to evaluate the promoter occupancy by CBP or p300 in presence of COMPOUND 1 or control (DMSO) treatment.
Formaldehyde cross-linking and chromatin immunoprecipitation assays of SW480 cells were performed as described previously (Barlev et al., “Acetylation of p53 activates transcription through recruitment of coactivators/histone acetyltransferases,” Mol. Cell 8:1243-54 (2001); El-Osta et al., “Analysis of chromatin-immunopurified MeCP2-associated fragments,” Biochem. Biophys. Res. Commun. 289:733-37 (2001); Shang et al., “Formation of the androgen receptor transcription Complex,” Mol. Cell 9:601-10 (2002)). […]

Another assay has as its system HCT116 cells. In words: FACS cell cycle analysis (propidium iodide), HCT116 cells. As to conditions: 25 μM, 24 hours. As for the experimental part:
as §1
For FACS analysis, approx. 5×10^6 cells from PNRI-treated or vehicle-treated were fixed with 70% chilled ethanol and stored at −20° C. for at least 30 minutes. […] 10,000 stained cells for each sample were acquired using Beckman Coulter EPICS XL-MCL Flow Cytometry and the percentage of cells in different phase of the cell cycle was determined by Expo32 ADC software (Coulter Corporation, Miami, Fla., 33196). […]

A word on the IC50: it is the concentration that gives 50% inhibition. A lower IC50 goes with greater potency in that assay.

`O=C1C(Cc2ccc(O)cc2)N2C(=O)CCN(C(=O)NCc3ccccc3)C2CN1Cc1cccc2ccccc12` (centres unmarked) [COMPOUND 1]: the Caspase-3/7 activity entry in assay [1] was “specifically and significantly activated”. Further, the “Number of colonies formed in soft agar” value in the assay on SW480 cells (0.25-5 μM) is “dose dependent decrease”. The compound further showed a 50% inhibitory concentration (IC50) in the assay with SW480 cells (5000 cells/well, colonies counted after 8 days) of 870 ± 110 nM. Besides, in the assay on cyclin D1 promoter, the “Association of CBP with the cyclin D1 promoter” value was “completely and selectively blocks”. Moreover, the “Cell cycle distribution (DNA content by FACS)” value with HCT116 cells is “increased accumulation at G1/S-phase”.
